Source: paper PMC7998760, “Solubility, Permeability, Anti-Inflammatory Action and In Vivo Pharmacokinetic Properties of Several Mechanochemically Obtained Pharmaceutical Solid Dispersions of Nimesulide” (Molecules, 2021)

Tests used:
[1] = Protocol: In this study, the stability constant and stoichiometry of the complex were calculated using Benesi-Hildebrant diagram (Equation (1)):Δδmax/Δδ − 1 = 1/[CD]^n × 1/K(1) where K is the stability constant of the complex, and Δδ is change of chemical shift.
Measurement of K values at different temperatures at 30–50 °C allows us to calculate the thermodynamic parameters of the HP-β-CD complex. From the dependence of R × lnK vs. 1/T using formulas (Equation (2)) and (Equation (3)), one can calculate the main thermodynamic parameters of complexation: the change in the Gibbs energy, enthalpy, and entropy:R × lnK = −ΔH^0/T + ΔS^0(2) ΔG^0 = ΔH^0 − TΔS^0(3)
^1H-NMR spectra were recorded on an Avance III 500 MHz spectrometer (Bruker, Rheinstetten, Germany) in D2O and CD3OD (99.8%, Sigma-Aldrich, Moscow, Russia) solutions as well as in their mixture. Spin-spin relaxation time T2 was measured by the Carr-Purcell-Meiboom-Gill (CPMG) pulse sequence.

histamine edema = assay: Anti-inflammatory study, histamine edema model; type: in vivo, CD-1 mice; details: oral single administration, doses 5, 10, 20 mg/kg of NIM, p < 0.05 compare to control
Protocol: (§1) CD-1 mice weighing 20–25 g were obtained from the vivarium of the Institute of Cytology and Genetic SB RAS. Animals were kept under standard conditions with free access to water and food with humidity and temperature-controlled rooms with light and dark 12 h cycles.
“Histamine swelling” was reproduced by introducing of 0.05 mL of 0.1% histamine solution under aponeurosis of the hind paw. The test compounds were administered by oral gavage 1 h before administration of inflammatory agent. The swelling degree was evaluated after 5 h by comparison the legs mass with inflammatory agent (m1) and without it (m2). The degree of inflammation (ID) for each mouse was calculated by the following formula (Equation (6)): (6) ID=m1−m2/m2×100%
The statistical analysis was performed using Mann–Whitney U test. Data shown as Mean ± SEM. p < 0.05 was considered to be statistically significant.

[2] = Pharmacokinetic study after a single per os administration; type: in vivo, CD-1 mice
Protocol: as §1
Mice were randomized by weight and divided into groups and deprived of food for 12 h prior to the experiment. […] Complexes were dissolved in distilled water. […] Blood samples were withdrawn after decapitation at 5, 15, 30, 45, 60, 90 120, 180 and 300 min (n = 5 for each time point) after introduction. Then, all the blood samples were centrifuged for 15 min at 1640× g and the supernatant serum fraction was transferred to empty tubes and kept frozen at −20 °C prior to analysis. The preparation of a blood sample was carried out according to the method described by. Briefly, the mouse plasma sample (0.2 mL) was transferred into glass test tube. 3 mL mixture solvent of ethyl acetate and hexane (90:10%, v/v) was added to the tubes and was vortexed for 3 min. Following a centrifugation for 7 min, 1.5 mL of organic phase was removed to another tube and evaporated. The dry residue was reconstituted with 100 μL of acetonitrile, vortexed for 30 s and 20 μL of the mixture was injected into the chromatograph. However, in contrast with noted reference we use HPLC conditions as described in HPLC analyses of this section.

[3] = alcohol solution, 400 nm
[4] = CD-1, mouse, serum, oral, 20 mg/kg
[5] = single per os, NIM dose 20 mg/kg, mice

CS(=O)(=O)Nc1ccc([N+](=O)[O-])cc1Oc1ccccc1 [NIM, N-(4-nitro-2-phenoxyphenyl)methanesulfonamide]
stability constant of the complex with HP-β-CD, cycle A ([1]; 30 °C, 1:1 complex): 140 M⁻¹ | stability constant of the complex with HP-β-CD, cycle B ([1]; 30 °C, 1:1 complex): 490 M⁻¹ | TΔS^0 of complexation with HP-β-CD, cycle A ([1]; 303 K): -28 ± 1.3 kJ/mol | TΔS^0 of complexation with HP-β-CD, cycle B ([1]; 303 K): -34.3 ± 2.1 kJ/mol | ΔG^0 of complexation with HP-β-CD, cycle B ([1]; 303 K): -12.6 kJ/mol | ΔH^0 of complexation with HP-β-CD, cycle A ([1]; 303 K): -43.9 ± 2.1 kJ/mol | ΔH^0 of complexation with HP-β-CD, cycle B ([1]; 303 K): -51 ± 4.18 kJ/mol | dose of NIM with significant anti-inflammatory effect (histamine edema): 20 mg/kg | Tmax [2, 4]: 0.572 h | half-life [2, 4]: 1.48 ± 0.347 h | AUC 0-inf_obs [2, 5]: 3978.88 ± 242.62 mkg/mL*min | Cmax [2, 5]: 38.43 ± 3.25 mkg/mL | stability constant of the chelate complex with magnesium ions [3]: 22,300 ± 7400 M^−1
